Converted amounts (≈) assume the structure as drawn.
Experiments:
Type in all cases: functional
Klebsiella pneumoniae [1] = assay: Antibacterial activity against Carbapenem-resistant Klebsiella pneumoniae BM1 clinical isolates assessed as reduction in bacterial growth by broth microdilution method
Enterobacter cloacae [2] = assay: Antibacterial activity against polymyxin-susceptible Enterobacter cloacae FADD1-EC001 clinical isolates assessed as reduction in bacterial growth by broth microdilution method
Klebsiella pneumoniae [3] = assay: Antibacterial activity against Carbapenem-resistant Klebsiella pneumoniae FADD1-KP065 clinical isolates assessed as reduction in bacterial growth by broth microdilution method
Pseudomonas aeruginosa [4] = assay: Antibacterial activity against polymyxin-susceptible Pseudomonas aeruginosa ATCC 27853 clinical isolates assessed as reduction in bacterial growth by broth microdilution method
Enterobacter cloacae [5] = assay: Antibacterial activity against polymyxin-susceptible Enterobacter cloacae FADD1-EC003 clinical isolates assessed as reduction in bacterial growth by broth microdilution method
Acinetobacter baumannii [6] = assay: Antibacterial activity against Carbapenem-resistant Acinetobacter baumannii FADD1-AB034 clinical isolates assessed as reduction in bacterial growth by broth microdilution method
Enterobacter cloacae [7] = assay: Antibacterial activity against polymyxin-susceptible Enterobacter cloacae FADD1-EC006 clinical isolates assessed as reduction in bacterial growth by broth microdilution method
Pseudomonas aeruginosa [8] = assay: Antibacterial activity against polymyxin-susceptible Pseudomonas aeruginosa FADD1-PA025 clinical isolates assessed as reduction in bacterial growth by broth microdilution method
Pseudomonas aeruginosa [9] = assay: Antibacterial activity against polymyxin-susceptible Pseudomonas aeruginosa FADD1-PA038 clinical isolates assessed as reduction in bacterial growth by broth microdilution method
Klebsiella pneumoniae [10] = assay: Antibacterial activity against polymyxin-susceptible Klebsiella pneumoniae ATCC 700721 clinical isolates assessed as reduction in bacterial growth by broth microdilution method
Acinetobacter baumannii [11] = assay: Antibacterial activity against polymyxin-susceptible Acinetobacter baumannii ATCC 17978 clinical isolates assessed as reduction in bacterial growth by broth microdilution method
Klebsiella pneumoniae [12] = assay: Antibacterial activity against Carbapenem-resistant Klebsiella pneumoniae FADD1-KP032 clinical isolates assessed as reduction in bacterial growth by broth microdilution method
Acinetobacter baumannii [13] = assay: Antibacterial activity against polymyxin-susceptible Acinetobacter baumannii ATCC 19606 clinical isolates assessed as reduction in bacterial growth by broth microdilution method
Acinetobacter baumannii [14] = assay: Antibacterial activity against Carbapenem-resistant Acinetobacter baumannii FADD1-AB030 clinical isolates assessed as reduction in bacterial growth by broth microdilution method
Klebsiella pneumoniae [15] = assay: Antibacterial activity against Carbapenem-resistant Klebsiella pneumoniae FADD1-KP022 clinical isolates assessed as reduction in bacterial growth by broth microdilution method
Pseudomonas aeruginosa [16] = assay: Antibacterial activity against Carbapenem-resistant Pseudomonas aeruginosa FADD1-PA001 clinical isolates assessed as reduction in bacterial growth by broth microdilution method
Pseudomonas aeruginosa [17] = assay: Antibacterial activity against Carbapenem-resistant Pseudomonas aeruginosa FADD1-PA022 clinical isolates assessed as reduction in bacterial growth by broth microdilution method

SMILES	MIC (Klebsiella pneumoniae [1]) [µg/mL]	MIC (Enterobacter cloacae [2]) [µg/mL]	MIC (Klebsiella pneumoniae [3]) [µg/mL]	MIC (Pseudomonas aeruginosa [4]) [µg/mL]	MIC (Enterobacter cloacae [5]) [µg/mL]	MIC (Acinetobacter baumannii [6]) [µg/mL]	MIC (Enterobacter cloacae [7]) [µg/mL]	MIC (Pseudomonas aeruginosa [8]) [µg/mL]	MIC (Pseudomonas aeruginosa [9]) [µg/mL]	MIC (Klebsiella pneumoniae [10]) [µg/mL]	MIC (Acinetobacter baumannii [11]) [µg/mL]	MIC (Klebsiella pneumoniae [12]) [µg/mL]	MIC (Acinetobacter baumannii [13]) [µg/mL]	MIC (Acinetobacter baumannii [14]) [µg/mL]	MIC (Klebsiella pneumoniae [15]) [µg/mL]	MIC (Pseudomonas aeruginosa [16]) [µg/mL]	MIC (Pseudomonas aeruginosa [17]) [µg/mL]
CC[C@H](C)CCCCC(=O)N[C@@H](CCN)C(=O)N[C@H](C(=O)N[C@@H](CCN)C(=O)N[C@H]1CCNC(=O)[C@H](Cc2ccc(O)cc2)NC(=O)[C@H](CCN)NC(=O)[C@H](CCN)NC(=O)[C@H](CC(C)C)NC(=O)[C@@H](Cc2ccccc2)NC(=O)[C@H](CCN)NC1=O)[C@@H](C)O	1 (≈ 0.79 µM)	16 (≈ 12.6 µM)	4 (≈ 3.16 µM)	2 (≈ 1.58 µM)	8 (≈ 6.32 µM)	2 (≈ 1.58 µM)	16 (≈ 12.6 µM)	2 (≈ 1.58 µM)	8 (≈ 6.32 µM)	8 (≈ 6.32 µM)	2 (≈ 1.58 µM)	4 (≈ 3.16 µM)	2 (≈ 1.58 µM)	4 (≈ 3.16 µM)	0.5 (≈ 0.395 µM)	4 (≈ 3.16 µM)	1 (≈ 0.79 µM)
CC[C@H](C)CCCCC(=O)N[C@@H](CCN)C(=O)N[C@H](C(=O)N[C@@H](CCN)C(=O)N[C@H]1CCNC(=O)[C@H](CCC(=O)O)NC(=O)[C@H](CCN)NC(=O)[C@H](CCN)NC(=O)[C@H](CC(C)C)NC(=O)[C@@H](Cc2ccccc2)NC(=O)[C@H](CCN)NC1=O)[C@@H](C)O	> 32	> 32	> 32	> 32	> 32	> 32	> 32	> 32	> 32	> 32	> 32	> 32	> 32	> 32	32 (≈ 26 µM)	> 32	> 32
CC[C@H](C)CCCCC(=O)N[C@@H](CCN)C(=O)N[C@H](C(=O)N[C@@H](CCN)C(=O)N[C@H]1CCNC(=O)[C@H](CC(=O)O)NC(=O)[C@H](CCN)NC(=O)[C@H](CCN)NC(=O)[C@H](CC(C)C)NC(=O)[C@@H](Cc2ccccc2)NC(=O)[C@H](CCN)NC1=O)[C@@H](C)O	32 (≈ 26.3 µM)	> 32	16 (≈ 13.1 µM)	> 32	> 32	> 32	> 32	> 32	> 32	> 32	> 32	32 (≈ 26.3 µM)	> 32	> 32	16 (≈ 13.1 µM)	> 32	8 (≈ 6.57 µM)
CC[C@H](C)CCCCC(=O)N[C@@H](CCN)C(=O)N[C@H](C(=O)N[C@@H](CCN)C(=O)N[C@H]1CCNC(=O)[C@H](Cc2c[nH]cn2)NC(=O)[C@H](CCN)NC(=O)[C@H](CCN)NC(=O)[C@H](CC(C)C)NC(=O)[C@@H](Cc2ccccc2)NC(=O)[C@H](CCN)NC1=O)[C@@H](C)O	> 32	32 (≈ 25.8 µM)	16 (≈ 12.9 µM)	8 (≈ 6.45 µM)	16 (≈ 12.9 µM)	16 (≈ 12.9 µM)	> 32	8 (≈ 6.45 µM)	16 (≈ 12.9 µM)	32 (≈ 25.8 µM)	4 (≈ 3.23 µM)	16 (≈ 12.9 µM)	16 (≈ 12.9 µM)	> 32	8 (≈ 6.45 µM)	32 (≈ 25.8 µM)	1 (≈ 0.807 µM)
CC[C@H](C)CCCCC(=O)N[C@@H](CCN)C(=O)N[C@H](C(=O)N[C@@H](CCN)C(=O)N[C@H]1CCNC(=O)[C@H]([C@@H](C)OC)NC(=O)[C@H](CCN)NC(=O)[C@H](CCN)NC(=O)[C@H](CC(C)C)NC(=O)[C@@H](Cc2ccccc2)NC(=O)[C@H](CCN)NC1=O)[C@@H](C)O	8 (≈ 6.57 µM)	8 (≈ 6.57 µM)	8 (≈ 6.57 µM)	1 (≈ 0.821 µM)	4 (≈ 3.29 µM)	4 (≈ 3.29 µM)	32 (≈ 26.3 µM)	2 (≈ 1.64 µM)	16 (≈ 13.1 µM)	8 (≈ 6.57 µM)	8 (≈ 6.57 µM)	2 (≈ 1.64 µM)	16 (≈ 13.1 µM)	8 (≈ 6.57 µM)	1 (≈ 0.821 µM)	8 (≈ 6.57 µM)	1 (≈ 0.821 µM)
CC[C@H](C)CCCCC(=O)N[C@@H](CCN)C(=O)N[C@H](C(=O)N[C@@H](CCN)C(=O)N[C@H]1CCNC(=O)[C@H](CCSC)NC(=O)[C@H](CCN)NC(=O)[C@H](CCN)NC(=O)[C@H](CC(C)C)NC(=O)[C@@H](Cc2ccccc2)NC(=O)[C@H](CCN)NC1=O)[C@@H](C)O	2 (≈ 1.62 µM)	8 (≈ 6.49 µM)	1 (≈ 0.811 µM)	1 (≈ 0.811 µM)	4 (≈ 3.24 µM)	4 (≈ 3.24 µM)	16 (≈ 13 µM)	2 (≈ 1.62 µM)	2 (≈ 1.62 µM)	4 (≈ 3.24 µM)	4 (≈ 3.24 µM)	2 (≈ 1.62 µM)	4 (≈ 3.24 µM)	2 (≈ 1.62 µM)	1 (≈ 0.811 µM)	2 (≈ 1.62 µM)	1 (≈ 0.811 µM)
